Reference: patent publication US20230391761A1, “S[…]-ALANINATE DERIVATIVES” (BAYER AKTIENGESELLSCHAFT, priority 2021, published 2023)

Test: Solubility in Citrate Buffer pH 4
Conditions: 25 °C, pH 4, aqueous buffer, thermodynamic from solid
Experimental: 25 mg compound are placed in 2 ml solvent. […] Thereafter, the solution or suspension is filtered and the remaining solution is analyzed via HPLC. The solubility is determined by comparison of the total area of the substance peak to a calibration curve (external standard).
Thereafter, the solution was centrifuged and analyzed via HPLC. The solubility was determined by comparison of the total area of the substance peak to a calibration curve (external standard). The measurements were conducted in triplicates.

SMILES: CCc1c(N2CC[C@H](O)C2=O)cccc1S(=O)(=O)N[C@@H](CNC(=O)c1ccc(Cl)s1)C(=O)OCCc1nccn1C.Cl [Example 2, 2-(1-Methyl-1H-imidazol-2-yl)ethyl 3-[(5-chlorothiophene-2-carbonyl)amino]-N-{2-ethyl-3-[(3S)-3-hydroxy-2-oxopyrrolidin-1-yl]benzene-1-sulfonyl}-S-alaninate hydrochloride]
- solubility at 24 h: > 500 mg/mL
